Assays:
Format in all cases: cell-based
[1] = system: human umbilical vascular endothelial cells (HUVEC); assay: CCK-8 cell growth analysis in vascular endothelial cells
Method: (§1) Each cell was treated in a serum-free culture solution containing 0.5 μM doxorubicin for 4 hours. After washing the cells with a serum-free culture solution, the cells were cultured for 4 days in a culture solution containing 10% FBS, and then cellular aging was confirmed by staining with senescence-associated beta galactosidase (SAβG). After dispensing 2×10^5 cells in a 100 mm culture dish, they were cultured in a 37° C., 5% CO2 incubator. When the cells grew to 80-90% in the culture dish, the cells were removed by treatment with trypsin-EDTA, and the number of cells was measured, and the cell population doubling time (PDT) was measured. After each sample was dissolved in DMSO, young cells, replicative senescent cells, and premature senescent cells treated with doxorubicin were treated with 100 nM zotarolimus, 100 nM rapamycin, 100 nM ABT263, respectively. […] Then, the absorbance was measured at 450 nm using a microplate reader. The degree of cell growth was expressed as a relative value for the absorbance of the control group treated with only DMSO as 100%. […]

[2] = system: human dermal fibroblasts (HDF); assay: CCK-8 cell growth analysis in human fibroblasts
Method: as §1

[3] = system: human dermal fibroblasts (HDF); assay: SAβG activity staining in senescent human fibroblasts; conditions: 4 days; for SAβG activity: 100 nM
Method: Each cell was treated in a serum-free culture solution containing 0.5 μM doxorubicin for 4 hours. After washing the cells with a serum-free culture solution, the cells were cultured for 4 days in a culture solution containing 10% FBS, and then cellular aging was confirmed by staining with senescence-associated beta galactosidase (SAβG). After dispensing 2×10^5 cells in a 100 mm culture dish, they were cultured in a 37° C., 5% CO2 incubator. When the cells grew to 80-90% in the culture dish, the cells were removed by treatment with trypsin-EDTA, and the number of cells was measured, and the cell population doubling time (PDT) was measured. By successively subculturing the cells in the same process as described above, replication aging was induced. PDT of young fibroblasts was 36 hours, PDT of replicative senescent fibroblasts was 12 days, PDT of young vascular endothelial cells was 24 hours, and PDT of replicative senescent vascular endothelial cells was 7 days. After each sample was dissolved in DMSO, young cells, replicative senescent cells, and premature senescent cells treated with doxorubicin were treated with 100 nM zotarolimus, 100 nM rapamycin, 100 nM ABT263, respectively. After incubation for 4 days in a 37° C., 5% CO2 incubator, the degree of cell growth was confirmed by CCK-8 analysis, the degree of cellular aging was confirmed by senescence-related beta-galactosidase (SAβG) staining, The cells were washed with 1× phosphate buffer solution, and fixed with a phosphate buffer solution containing 3.7% (v/v) paraformaldehyde. After adding 1 mg/ml 5-bromo-4-chloro-3-indolyl-6-D-galactoside, 40 mM citric acid-sodium phosphate (pH 6.0), 5 mM potassium ferricyanide, 5 mM potassium ferrocyanide, 150 mM NaCl, and 2 mM MgCl2 solution, it was reacted at 37° C. for 18 hours. It was stained with eosin as a control stain. Cells stained blue in the cytoplasm were identified using an optical microscope. Human fibroblasts were treated with doxorubicin to induce early cellular senescence. […]

Q: With `CO[C@H]1C[C@@H]2CC[C@@H](C)[C@@](O)(O2)C(=O)C(=O)N2CCCC[C@H]2C(=O)O[C@H]([C@H](C)C[C@@H]2CC[C@H](n3cnnn3)[C@H](OC)C2)CC(=O)[C@H](C)/C=C(\C)[C@@H](O)[C@@H](OC)C(=O)[C@H](C)C[C@H](C)/C=C/C=C/C=C/1C` [zotarolimus] as the compound, how does the “cell growth (CCK-8)” value ([1]; premature senescent HUVEC by doxorubicin, 100 nM, 4 days, vs DMSO, p<0.01) read?
A: significantly reduced

Q: What about the “cell growth with increasing concentration of zotarolimus” value ([1]; young vs replicative senescent HUVEC) of the same compound?
A: decreased compared to the young cells in a concentration-dependent manner

Q: And the “cell growth (CCK-8)” value ([2]; premature senescent fibroblasts by doxorubicin, 100 nM, 4 days, vs DMSO)?
A: significantly decreased

Q: What about the “cell growth with increasing concentration of zotarolimus” value ([2]; young vs replicative senescent fibroblasts, concentration-dependent) of the same compound?
A: more markedly decreased in senescent cells compared to young cells

Q: What about the SAβG activity ([3]; premature senescent fibroblasts by doxorubicin, vs DMSO-treated group) of the same compound?
A: decreased compared to the DMSO-treated group

Q: What about the “SAβG activity compared with rapamycin” value ([3]; replicative senescent fibroblasts, 100 nM each, p<0.05) of the same compound?
A: significantly reduced than that of rapamycin

Q: And the SAβG activity ([3]; replicative senescent fibroblasts, vs DMSO, p<0.01)?
A: significantly reduced

Reference: US20220023271A1, “COMPOSITION FOR PREVENTING OR TREATING CELLULAR SENESCENCE-RELATED DISEASES COMPRISING ZOTAROLIMUS AS ACTIVE INGREDIENT” (RESEARCH COOPERATION FOUNDATION OF YEUNGNAM UNIVERSITY, priority 2018, published 2022)
